Experimental data from patent US12234221B2, “Pyridine carboxamide compounds for inhibiting NAV1.8” (Lieber Institute, Inc., priority 2018, dated 2025).

These compounds were tested against T1, human Nav1.8 (hNav1.8) ion channel (Homo sapiens, UniProt Q9Y5Y9) (assay: Nav1.8 channel inhibition, estimated IC50 (one or more of: fluorescence inhibition assay, PatchXpress, IonFlux HT automated patch clamp)). Conditions: HEK293 cells stably expressing hNav1.8; method used per compound not stated; read-out: Activity range (estimated IC50).
T1 construct: expressed in transfected cells; host or cells: HEK293
Type: cell-based
Procedure: The ability of pyridine carboxamide derivatives exemplified above to inhibit the Nav1.8 channel was determined using one or more of the methods described below.
HEK Nav1.8 β1/β2 Stably Expressing Cell Line
A HEK293 cell line stably expressing the human Nav1.8 (hNav1.8) ion channel with β1/β2 subunits was constructed. The cell line is suitable for IC50 determination in fluorescence and electrophysiological based assays. It is also suitable to form mechanism of action pharmacology studies in electrophysiological assays. HEK293 Nav 1.8 cells are grown as adherent monolayers in DMEM/high glucose media, 10% fetal bovine serum, Na pyruvate (2 mM), Hepes (10 mM) with selection agents G418 (400 mg/L) and puromycin (0.5 mg/L) at 37 degrees C., 10% CO2.
Nav 1.8 Fluorescence Inhibition Assay
Compounds were made up to or supplied as a 10-mM stock solution using DMSO as the vehicle. Concentration-response curves were generated using a Matrix multichannel pipettor. Compound source plates were made by diluting 10 mM compound stocks to create 500 μM (100×) solutions in DMSO in 96-well v-bottom plates. Compounds were then serially diluted in 100% DMSO to generate a 5 point, 4-fold dilution scheme dose response curve. 2 μL of the 100× dose response curves was then added to preincubation and stimulation assay plates. 100 μL of pre-incubation buffer and 200 μL of stimulation buffer were then added to the plates resulting in a final assay test concentration range of 5 μM to 0.02 μM with a final DMSO concentration of 1%.
On the day of assay, plates were washed to remove cell culture media using 2K EBSS buffer (135 mM NaCl, 2 mM KCl, 5 mM Glucose, 2 mM CaCl2), 1 mM MgCl2, 10 mM HEPES, pH 7.4). The Na-sensitive fluorescent dye, Asante Natrium Green-2 (ANG-2) is incubated for 60 min to allow equilibration and then washed with 2K EBSS. Plates are the transferred to a fluorescence plate reader (FLIPR™, Molecular Devices) for fluorescence measurement using an excitation wavelength of 490 nm and an emission wavelength of 565 nm. Compounds are pre-incubated at for 5 min at final test concentration in the presence of ouabain (30 μM) to inhibit Na+ efflux through Na+/K+ exchanger. Following the pre-incubation phase, hNav1.8 channels are stimulated with 10 μM of the pyrethroid deltamethrin to prevent channel inactivation. The assay was run for 15 min with vehicle and 30 μM tetracaine serving as negative and positive controls, respectively. The peak change in fluorescence relative to negative and positive control wells was calculated and fit with a logistic equation to determine IC50.
PatchXpress Nav 1.8 Inhibition Assay
HEK-Nav1.8 β1/β2 cells were recorded in whole cell patch-clamp using the PatchXpress automated patch clamp platforms (Molecular Devices). Cells suspensions were obtained by trypsinization of adherent monolayers, followed by gentle rocking for minimally 30 min. Compounds were prepared from 10 mM DMSO stocks.
Nav1.8 channel variants were evaluated using Protocol 1 (FIG. 2) in which cells were initially voltage clamped at a holding potential of −100 mV to maintain Nav1.8 in a closed resting state. After current amplitude becomes stable, the mid-point voltage of steady state inactivation was determined for each cell using a series of 5 sec conditioning steps to increasingly depolarized voltages (−100 to 0 mV) The holding potential was then reset to a voltage that produces ˜50% inactivation (Vhalf−set automatically via PatchXpress scripts) so that closed and inactivated channel inhibition can be assessed. Protocol 1 was run at a frequency of 0.1 Hz until current amplitude is steady (automatically determined by PatchXpress scripts). The effect of test reagent on Nav current amplitude was monitored using custom PatchXpress stability scripts which determines the timing of compound addition and washout. Data were processed and analyzed using DataXpress 2.0 (Molecular Devices). […]

T1 sequence (Q9Y5Y9 whole entry): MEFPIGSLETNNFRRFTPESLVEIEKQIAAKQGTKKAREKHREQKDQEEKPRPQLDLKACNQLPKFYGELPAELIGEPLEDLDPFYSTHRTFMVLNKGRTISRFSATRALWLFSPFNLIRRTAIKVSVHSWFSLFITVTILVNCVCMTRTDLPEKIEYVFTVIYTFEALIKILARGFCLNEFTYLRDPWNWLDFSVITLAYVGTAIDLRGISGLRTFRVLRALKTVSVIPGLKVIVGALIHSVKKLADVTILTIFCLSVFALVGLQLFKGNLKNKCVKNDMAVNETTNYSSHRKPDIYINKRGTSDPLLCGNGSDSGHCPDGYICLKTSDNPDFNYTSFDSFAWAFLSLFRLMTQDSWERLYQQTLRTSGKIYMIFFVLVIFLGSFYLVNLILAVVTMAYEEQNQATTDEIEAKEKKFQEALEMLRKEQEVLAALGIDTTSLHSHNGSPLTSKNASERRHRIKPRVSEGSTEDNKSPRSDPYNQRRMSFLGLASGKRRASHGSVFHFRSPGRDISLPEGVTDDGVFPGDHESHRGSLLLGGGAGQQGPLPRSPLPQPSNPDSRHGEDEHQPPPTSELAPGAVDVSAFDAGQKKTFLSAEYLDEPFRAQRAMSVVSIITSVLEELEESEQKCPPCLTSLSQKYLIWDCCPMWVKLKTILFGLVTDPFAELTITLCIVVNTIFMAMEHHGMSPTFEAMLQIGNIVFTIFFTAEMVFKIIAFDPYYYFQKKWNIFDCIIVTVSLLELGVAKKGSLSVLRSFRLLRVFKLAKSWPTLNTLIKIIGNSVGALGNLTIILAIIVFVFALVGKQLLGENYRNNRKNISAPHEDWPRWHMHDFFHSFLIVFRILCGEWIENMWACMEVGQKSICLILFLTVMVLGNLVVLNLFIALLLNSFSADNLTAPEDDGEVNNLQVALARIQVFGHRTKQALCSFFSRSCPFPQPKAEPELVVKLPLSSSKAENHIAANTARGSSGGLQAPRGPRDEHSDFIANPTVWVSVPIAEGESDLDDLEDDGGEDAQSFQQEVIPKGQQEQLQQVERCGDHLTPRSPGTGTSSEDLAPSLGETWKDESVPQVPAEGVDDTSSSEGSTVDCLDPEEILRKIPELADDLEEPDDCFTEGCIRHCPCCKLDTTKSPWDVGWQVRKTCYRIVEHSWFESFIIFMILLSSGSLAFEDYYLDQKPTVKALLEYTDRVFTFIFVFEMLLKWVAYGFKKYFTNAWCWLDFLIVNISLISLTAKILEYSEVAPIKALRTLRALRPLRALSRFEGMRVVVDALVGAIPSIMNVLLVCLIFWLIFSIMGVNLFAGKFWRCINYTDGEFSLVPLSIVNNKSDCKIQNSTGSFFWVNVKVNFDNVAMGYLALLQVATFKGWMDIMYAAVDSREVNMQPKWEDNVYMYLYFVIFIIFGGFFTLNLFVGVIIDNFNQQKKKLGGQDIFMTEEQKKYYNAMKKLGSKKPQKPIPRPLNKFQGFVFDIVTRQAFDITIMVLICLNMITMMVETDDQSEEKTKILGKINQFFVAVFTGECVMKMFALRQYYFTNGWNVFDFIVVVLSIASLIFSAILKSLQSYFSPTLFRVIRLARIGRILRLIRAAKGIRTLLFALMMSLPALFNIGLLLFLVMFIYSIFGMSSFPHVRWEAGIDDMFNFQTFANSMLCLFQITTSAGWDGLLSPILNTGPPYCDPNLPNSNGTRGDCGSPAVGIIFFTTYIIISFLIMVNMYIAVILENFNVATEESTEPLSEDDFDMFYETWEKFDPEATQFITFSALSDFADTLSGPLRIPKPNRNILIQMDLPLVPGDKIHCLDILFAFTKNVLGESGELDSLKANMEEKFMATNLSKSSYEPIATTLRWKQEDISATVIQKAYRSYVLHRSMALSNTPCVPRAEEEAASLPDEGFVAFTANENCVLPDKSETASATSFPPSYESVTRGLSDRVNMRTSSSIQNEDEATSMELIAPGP

Row | Compound | IC50 [µM]
1 | CS(=O)(=O)c1cccc(NC(=O)c2cc(C(F)(F)F)cnc2Oc2ccc(F)c(F)c2)c1 [Example 47, 2-(3,4-difluorophenoxy)-N-(3-methylsulfonyl-phenyl)-5-(trifluoromethyl)pyridine-3-carboxamide] | < 0.5
2 | CS(=O)(=O)c1cccc(NC(=O)c2cc(C(F)(F)F)cnc2Oc2ccc(SC(F)(F)F)cc2)c1 [Example 51, N-(3-methylsulfonyl-phenyl)-5-(trifluoromethyl)-2-[4-(trifluoromethyl-sulfanyl)phenoxy]pyridine-3-carboxamide] | < 0.5
3 | COc1cc(F)ccc1Oc1ncc(C(F)(F)F)cc1C(=O)Nc1ccc(C)nc1 [Example 18, 2-(4-fluoro-2-methoxy-phenoxy)-N-(6-methyl-3-pyridyl)-5-(trifluoromethyl)pyridine-3-carboxamide] | > 1
4 | CS(=O)(=O)c1cccc(NC(=O)c2cc(C(F)(F)F)cnc2Oc2ccc(OC(F)(F)F)cc2)c1 [Example 38, N-(3-methylsulfonyl-phenyl)-2-[4-(trifluoromethoxy)phenoxy]-5-(trifluoromethyl)pyridine-3-carboxamide] | < 0.5
5 | Cc1ccc(Oc2ncc(C(F)(F)F)cc2C(=O)Nc2cccc(S(C)(=O)=O)c2)c(C)c1 [Example 22, 2-(2,4-dimethylphenoxy)-N-(3-methylsulfonylphenyl)-5-(trifluoromethyl)pyridine-3-carboxamide] | > 1
6 | COc1cc(F)ccc1Oc1ncc(C(F)(F)F)cc1C(=O)Nc1cccc(N2CCOCC2)c1 [Example 2, 2-(4-fluoro-2-methoxy-phenoxy)-N-(3-morpholinophenyl)-5-(trifluoromethyl)pyridine-3-carboxamide] | > 1
7 | COc1cc(F)ccc1Oc1ncc(C(F)(F)F)cc1C(=O)Nc1cccnc1 [Example 4, 2-(4-fluoro-2-methoxy-phenoxy)-N-(3-pyridyl)-5-(trifluoromethyl)pyridine-3-carboxamide] | > 1
8 | CS(=O)(=O)c1cccc(NC(=O)c2cc(C(F)(F)F)cnc2Oc2ccc(OC(F)F)cc2)c1 [Example 39, 2-[4-(difluoromethoxy)phenoxy]-N-(3-methylsulfonyl-phenyl)-5-(trifluoromethyl)pyridine-3-carboxamide] | < 0.5
9 | Cc1ccc(Oc2ncc(C(F)(F)F)cc2C(=O)Nc2cccc(S(C)(=O)=O)c2)cc1 [Example 44, 2-(4-methylphenoxy)-N-(3-methylsulfonyl-phenyl)-5-(trifluoromethyl)pyridine-3-carboxamide] | > 1
10 | COc1ccc(Oc2ncc(C(F)(F)F)cc2C(=O)Nc2cccc(S(C)(=O)=O)c2)c(OC)c1 [Example 54, 2-(2,4-dimethoxyphenoxy)-N-(3-methylsulfonyl-phenyl)-5-(trifluoromethyl)pyridine-3-carboxamide] | < 0.5
11 | COc1ccc(Oc2ncc(C(F)(F)F)cc2C(=O)Nc2cccc(S(C)(=O)=O)c2)c(Cl)c1 [Example 23, 2-(2-chloro-4-methoxy-phenoxy)-N-(3-methylsulfonylphenyl)-5-(trifluoromethyl)pyridine-3-carboxamide] | < 0.5
12 | COc1cc(F)ccc1Oc1cc(C(F)(F)F)ncc1C(=O)Nc1ccnnc1 [Example 71, 4-(4-fluoro-2-methoxy-phenoxy)-N-pyridazin-4-yl-6-(trifluoromethyl)pyridine-3-carboxamide] | < 0.5
13 | COc1cc(F)ccc1Oc1ncc(C(F)(F)F)cc1C(=O)Nc1cccc([S+](C)[O-])c1 (stereo not drawn) [Example 8, 2-(4-fluoro-2-methoxy-phenoxy)-N-(3-methylsulfinylphenyl)-5-(trifluoromethyl)pyridine-3-carboxamide] | < 0.5
14 | COc1cc(F)ccc1Oc1ncc(C(F)(F)F)cc1C(=O)Nc1ccncc1 [Example 6, 2-(4-fluoro-2-methoxy-phenoxy)-N-(4-pyridyl)-5-(trifluoromethyl)pyridine-3-carboxamide] | 0.5 to 1

Further lines, results first:

Row | IC50 [µM] | Compound
15 | < 0.5 | COc1cc(F)ccc1Oc1cc(C(F)(F)F)ncc1C(=O)Nc1ccncc1 [Example 72, 4-(4-fluoro-2-methoxy-phenoxy)-N-(4-pyridyl)-6-(trifluoromethyl)pyridine-3-carboxamide]
16 | < 0.5 | O=C(Nc1cc[n+]([O-])cc1)c1cc(C(F)(F)F)cnc1Oc1ccc(OC(F)(F)F)cc1 [Example 141, N-(1-oxidopyridin-1-ium-4-yl)-2-[4-(trifluoromethoxy)phenoxy]-5-(trifluoromethyl)pyridine-3-carboxamide]
17 | < 0.5 | O=C(Nc1ccnnc1)c1cc(C(F)(F)F)cnc1Oc1ccc(OC(F)(F)F)cc1 [Example 128, N-pyridazin-4-yl-2-[4-(trifluoromethoxy)phenoxy]-5-(trifluoromethyl)pyridine-3-carboxamide]
18 | < 0.5 | COc1cc(F)ccc1Oc1nc(C)c(C)cc1C(=O)Nc1cccc(S(C)(=O)=O)c1 [Example 118, 2-(4-fluoro-2-methoxy-phenoxy)-5,6-dimethyl-N-(3-methylsulfonylphenyl)pyridine-3-carboxamide]
19 | < 0.5 | O=C(Nc1ccc[n+]([O-])c1)c1cc(C(F)(F)F)cnc1Oc1ccc(OC(F)(F)F)cc1 [Example 132, N-(1-oxidopyridin-1-ium-3-yl)-2-[4-(trifluoromethoxy)phenoxy]-5-(trifluoromethyl)pyridine-3-carboxamide]
20 | < 0.5 | Cc1cc(NC(=O)c2cc(C(F)(F)F)cnc2Oc2ccc(OC(F)(F)F)cc2Cl)ccn1 [Example 164, 2-[2-chloro-4-(trifluoromethoxy)phenoxy]-N-(2-methyl-4-pyridyl)-5-(trifluoromethyl)pyridine-3-carboxamide]
21 | < 0.5 | Cc1cc(F)ccc1Oc1ncc(C(F)(F)F)cc1C(=O)Nc1cccc(S(C)(=N)=O)c1 (stereo not drawn) [Example 115, 2-(4-fluoro-2-methyl-phenoxy)-N-[3-(methylsulfonimidoyl)phenyl]-5-(trifluoromethyl)pyridine-3-carboxamide]
22 | 0.5 to 1 | O=C(Nc1cccnc1)c1cc(C(F)(F)F)cnc1Oc1ccc(OC(F)(F)F)cc1 [Example 126, N-(3-pyridyl)-2-[4-(trifluoromethoxy)phenoxy]-5-(trifluoromethyl)pyridine-3-carboxamide]
23 | < 0.5 | CS(=O)(=O)c1cccc(NC(=O)c2cc([N+](=O)[O-])cnc2Oc2ccc(OC(F)(F)F)cc2)c1 [Example 180, N-(3-methylsulfonylphenyl)-5-nitro-2-[4-(trifluoromethoxy)phenoxy]pyridine-3-carboxamide]
24 | > 1 | COc1cc(F)ccc1Oc1ncc(C(F)(F)F)cc1C(=O)Nc1ccc[n+]([O-])c1 [Example 134, 2-(4-fluoro-2-methoxy-phenoxy)-N-(1-oxidopyridin-1-ium-3-yl)-5-(trifluoromethyl)pyridine-3-carboxamide]
25 | < 0.5 | CN=S(C)(=O)c1cccc(NC(=O)c2cc(C(F)(F)F)cnc2Oc2ccc(OC)cc2OC)c1 (stereo not drawn) [Example 171, 2-(2,4-dimethoxyphenoxy)-N-[3-(N,S-dimethylsulfonimidoyl)phenyl]-5-(trifluoromethyl)pyridine-3-carboxamide]
26 | < 0.5 | O=C(Nc1cccnc1)c1cnc(C(F)(F)F)cc1Oc1ccc(OC(F)(F)F)cc1Cl [Example 78, 4-[2-chloro-4-(trifluoromethoxy)phenoxy]-N-(3-pyridyl)-6-(trifluoromethyl)pyridine-3-carboxamide]
27 | < 0.5 | COc1ccc(Oc2ncc(C(F)(F)F)cc2C(=O)Nc2ccc[n+]([O-])c2)c(Cl)c1 [Example 138, 3-(2-(2-chloro-4-methoxyphenoxy)-5-(trifluoromethyl)nicotinamido)pyridine 1-oxide]
